ChEMBL document CHEMBL5380834, “Design, Synthesis, and Biological Evaluation of Androgen Receptor (AR) Antagonist-Heat Shock Protein 90 (Hsp90) Inhibitor Conjugates for Targeted Therapy of Castration-Resistant Prostate Cancer” (J Med Chem, 2023)
The source made the active and inactive calls. The calls are words filed in the database; no cut-off is given here.

What was measured:
[1] = system: LNCaP; assay: Cytotoxicity against AR-positive human LNCaP cells assessed as inhibition of cell growth incubated for 5 days in presence of AR agonist, R1881 in charcoal stripped serum by WST-1 assay; format: functional, cell-based; details: 120 h
[2] = system: CWR22R; assay: Cytotoxicity against human 22Rv1 cells assessed as inhibition of cell growth incubated for 5 days in presence of AR agonist, R1881 by WST-1 assay; format: functional, cell-based; details: 22Rv1, 120 h
[3] = system: CWR22R; assay: Antitumor activity against human 22Rv1 cells xenografted in BALB/c nude mouse assessed as downregulation of AR-FL level at 2.5 mg/kg, ip administered once every 4th day for 3 weeks; format: functional, organism-based
[4] = system: CWR22R; assay: Antitumor activity against human 22Rv1 cells xenografted in BALB/c nude mouse assessed as downregulation of AR-V7 level at 2.5 mg/kg, ip administered once every 4th day for 3 weeks; format: functional, organism-based
[5] = Toxicity in BALB/c nude mouse xenografted with human LNCaP cells assessed as animal weight loss at 5 mg/kg, ip administered once every 4th day for 3 weeks; format: organism-based; details: in vivo, 504 h
[6] = system: LNCaP; assay: animal or person; details: Mus musculus, po, 504 h, read-out: TGI
Description: Antitumor activity against human LNCaP cells xenografted in BALB/c nude mouse assessed as inhibition of tumor growth at 5 mg/kg, po administered once every 4th day for 3 weeks

[7] = biological target: T1, Androgen receptor (Homo sapiens) (UniProt P10275); assay: Induction of full length AR degradation in human LNCaP cells assessed as maximum degradation at 100 nM measured after 12 hrs relative to control; format: cell-based
T1 sequence (whole entry): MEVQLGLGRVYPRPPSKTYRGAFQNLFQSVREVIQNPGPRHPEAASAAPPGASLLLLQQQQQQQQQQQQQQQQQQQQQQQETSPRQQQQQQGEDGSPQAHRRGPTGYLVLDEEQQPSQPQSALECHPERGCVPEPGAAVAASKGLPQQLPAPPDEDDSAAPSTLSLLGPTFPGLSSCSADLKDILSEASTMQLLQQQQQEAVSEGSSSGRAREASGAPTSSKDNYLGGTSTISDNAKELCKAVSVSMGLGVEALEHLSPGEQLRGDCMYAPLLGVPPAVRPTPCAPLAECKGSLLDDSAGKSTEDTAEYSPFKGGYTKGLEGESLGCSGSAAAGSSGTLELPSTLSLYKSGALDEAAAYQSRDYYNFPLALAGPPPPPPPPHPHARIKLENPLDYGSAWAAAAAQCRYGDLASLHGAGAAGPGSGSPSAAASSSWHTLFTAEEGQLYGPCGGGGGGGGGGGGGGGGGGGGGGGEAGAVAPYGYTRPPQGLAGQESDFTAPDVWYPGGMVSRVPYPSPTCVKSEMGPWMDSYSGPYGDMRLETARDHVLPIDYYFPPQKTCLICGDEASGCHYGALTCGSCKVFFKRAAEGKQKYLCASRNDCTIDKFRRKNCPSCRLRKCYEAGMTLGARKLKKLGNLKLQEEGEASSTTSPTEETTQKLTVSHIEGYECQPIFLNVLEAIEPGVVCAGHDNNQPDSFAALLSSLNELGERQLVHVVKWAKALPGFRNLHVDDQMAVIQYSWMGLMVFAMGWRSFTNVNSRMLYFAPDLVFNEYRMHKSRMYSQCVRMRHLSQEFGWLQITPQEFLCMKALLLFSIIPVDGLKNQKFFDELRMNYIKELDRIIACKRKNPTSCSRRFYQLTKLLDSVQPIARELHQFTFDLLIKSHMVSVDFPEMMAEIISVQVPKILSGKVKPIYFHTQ

[8] = system: Androgen receptor (Homo sapiens), P10275 [UNDEFINED MUTATION]; assay: Induction of AR-V7 degradation in human 22Rv1 cells measured upto 24 hrs by Western blot analysis; format: cell-based; details: dose 1000.0 nM
[9] = system: LNCaP; assay: Downregulation of AR-regulated TMPRSS2 protein level in human LNCaP cells measured for 48 hrs in presence of AR agonist, R1881 in charcoal stripped serum by Western blot analysis; format: functional, cell-based; details: dose 300-1000 nM
[10] = system: LNCaP; assay: Downregulation of AR-regulated PSA protein level in human LNCaP cells measured for 48 hrs in presence of AR agonist, R1881 in charcoal stripped serum by Western blot analysis; format: functional, cell-based; details: dose 300-1000 nM
[11] = system: LNCaP; assay: Downregulation of AR-regulated FKBP5 protein level in human LNCaP cells measured for 48 hrs in presence of AR agonist, R1881 in charcoal stripped serum by Western blot analysis; format: functional, cell-based; details: dose 300-1000 nM
[12] = Drug uptake in human 22Rv1 cells measured after 12 hrs by LC-MS/MS analysis; format: ADME, cell-based; details: cwr22r, 1 µM
[13] = Drug uptake in human 22Rv1 cells at 1 uM measured at 1 to 24 hrs by LC-MS/MS analysis; format: ADME, cell-based; details: cwr22r, time 1-24 hrs
[14] = biological target: T1, Androgen receptor (Homo sapiens); assay: Induction of full length AR degradation in human RWPE-1 cells at 10 uM measured for 24 hrs by Western blot analysis; format: cell-based
[15] = Cytotoxicity against human RWPE-1 cells assessed as inhibition of cell growth incubated for 5 days by CCK-8 assay; format: toxicity, cell-based
[16] = system: LNCaP; assay: Induction of cell cycle arrest in human LNCaP cells assessed as accumulation of cells at G2/M phase at 100 to 1000 nM measured for 24 hrs by flow cytometry analysis; format: functional, cell-based; details: dose 100-1000 nM
[17] = system: CWR22R; assay: Induction of cell cycle arrest in human 22Rv1 cells assessed as accumulation of cells at G2/M phase at 100 to 1000 nM measured for 24 hrs by flow cytometry analysis; format: functional, cell-based; details: dose 100-1000 nM
[18] = system: LNCaP; assay: Induction of apoptosis in human LNCaP cells assessed as viable cells at 100 nM measured for 48 hrs by flow cytometry assay (reference value: 96.9%); format: functional; details: read-out: Activity
[19] = system: LNCaP; assay: Induction of apoptosis in human LNCaP cells assessed as early apoptotic cells at 100 nM measured for 48 hrs by flow cytometry assay (reference value: 1.48%); format: functional
[20] = system: LNCaP; assay: Induction of apoptosis in human LNCaP cells assessed as late apoptotic cells at 100 nM measured for 48 hrs by flow cytometry assay (reference value: 1.29%); format: functional
[21] = system: LNCaP; assay: Induction of apoptosis in human LNCaP cells assessed as necrotic cells at 100 nM measured for 48 hrs by flow cytometry assay (reference value: 0.35%); format: functional
[22] = system: LNCaP; assay: Induction of apoptosis in human LNCaP cells assessed as viable cells at 1000 nM measured for 48 hrs by flow cytometry assay (reference value: 96.9%); format: functional; details: read-out: Activity
[23] = system: LNCaP; assay: Induction of apoptosis in human LNCaP cells assessed as early apoptotic cells at 1000 nM measured for 48 hrs by flow cytometry assay (reference value: 1.48%); format: functional
[24] = system: LNCaP; assay: Induction of apoptosis in human LNCaP cells assessed as late apoptotic cells at 1000 nM measured for 48 hrs by flow cytometry assay (reference value: 1.29%); format: functional
[25] = system: LNCaP; assay: Induction of apoptosis in human LNCaP cells assessed as necrotic cells at 1000 nM measured for 48 hrs by flow cytometry assay (reference value: 0.35%); format: functional
[26] = system: CWR22R; assay: Induction of apoptosis in human 22Rv1 cells assessed as viable cells at 100 nM measured for 48 hrs by flow cytometry assay (reference value: 91.3%); format: functional; details: read-out: Activity
[27] = system: CWR22R; assay: Induction of apoptosis in human 22Rv1 cells assessed as early apoptotic cells at 100 nM measured for 48 hrs by flow cytometry assay (reference value: 4.59%); format: functional
[28] = system: CWR22R; assay: Induction of apoptosis in human 22Rv1 cells assessed as late apoptotic cells at 100 nM measured for 48 hrs by flow cytometry assay (reference value: 3.96%); format: functional
[29] = system: CWR22R; assay: Induction of apoptosis in human 22Rv1 cells assessed as necrotic cells at 100 nM measured for 48 hrs by flow cytometry assay (reference value: 0.19%); format: functional
[30] = system: CWR22R; assay: Induction of apoptosis in human 22Rv1 cells assessed as viable cells at 1000 nM measured for 48 hrs by flow cytometry assay (reference value: 91.3%); format: functional; details: read-out: Activity
[31] = system: CWR22R; assay: Induction of apoptosis in human 22Rv1 cells assessed as early apoptotic cells at 1000 nM measured for 48 hrs by flow cytometry assay (reference value: 4.59%); format: functional
[32] = system: CWR22R; assay: Induction of apoptosis in human 22Rv1 cells assessed as late apoptotic cells at 1000 nM measured for 48 hrs by flow cytometry assay (reference value: 3.96%); format: functional
[33] = system: CWR22R; assay: Induction of apoptosis in human 22Rv1 cells assessed as necrotic cells at 1000 nM measured for 48 hrs by flow cytometry assay (reference value: 0.19%); format: functional
[34] = system: LNCaP; assay: Induction of apoptosis in human LNCaP cells assessed as increase in caspase-3 level at 1 uM measured after 48 hrs by Western blot analysis; format: functional, cell-based
[35] = system: LNCaP; assay: Induction of apoptosis in human LNCaP cells assessed as increase in PARP level at 1 uM measured after 48 hrs by Western blot analysis; format: functional, cell-based
[36] = system: CWR22R; assay: Induction of apoptosis in human 22Rv1 cells assessed as increase in caspase-3 level at 1 uM measured after 48 hrs by Western blot analysis; format: functional, cell-based
[37] = system: CWR22R; assay: Induction of apoptosis in human 22Rv1 cells assessed as increase in PARP level at 1 uM measured after 48 hrs by Western blot analysis; format: functional, cell-based
[38] = Toxicity in BALB/c nude mouse xenografted with human 22Rv1 cells assessed as animal weight loss at 5 mg/kg, ip administered once every 4th day for 3 weeks; format: organism-based, CWR22R; details: in vivo, 504 h

CNC(=O)c1ccc(N2C(=S)N(c3ccc(C#N)c(C(F)(F)F)c3)C(=O)C2(C)C)cc1F [ENZALUTAMIDE]
IC50 [1]: 52 nM
IC50 [2]: > 1000 nM
Activity [3]: inactive
Activity [4]: inactive
Activity [5]: 10%
inhibition in vivo at 5 mg/kg [6]: 50%

CC(C)c1cc(-c2n[nH]c(=O)n2-c2ccc(CN3CCN(CC4CCN(CC5CCN(c6ncc(C(=O)N[C@H]7CC[C@H](Oc8ccc(C#N)c(Cl)c8)CC7)cn6)CC5)CC4)CC3)cc2)c(O)cc1O
IC50 [1]: 33.4 nM
IC50 [2]: 27 nM
Activity [7]: > 90%
Activity [8]: Dose-Dependent Effect
Activity [9]: Dose-Dependent Effect
Activity [10]: Dose-Dependent Effect
Activity [11]: Dose-Dependent Effect
Drug uptake [12]: Dose-Dependent Effect
Drug uptake [13]: Active
Activity [14]: inactive
IC50 at 5 days [15]: 241 nM
Activity [16]: Active
Activity [17]: Active
viability at 0.1 µM [18]: 91.9%
Activity [19]: 4.05%
Activity [20]: 3.71%
Activity [21]: 0.32%
viability at 1 µM [22]: 87.1%
Activity [23]: 4.87%
Activity [24]: 6.91%
Activity [25]: 1.13%
viability at 0.1 µM [26]: 80.1%
Activity [27]: 6.96%
Activity [28]: 12.8%
Activity [29]: 0.066%
viability at 1 µM [30]: 70.3%
Activity [31]: 13.5%
Activity [32]: 16.1%
Activity [33]: 0.085%
Activity [34]: Active
Activity [35]: Active
Activity [36]: Active
Activity [37]: Active
Activity [38]: ~ 10%
Activity [5]: 10%
